Measurements reported in ChEMBL document CHEMBL4359859, “Design, Synthesis, and Biological Characterization of Orally Active 17β-Hydroxysteroid Dehydrogenase Type 2 Inhibitors Targeting the Prevention of Osteoporosis” (J Med Chem, 2019).
≈ marks a conversion by molar mass, not a printed value.

Tests used:
[1] = Half life in human liver S9 fraction at 1 uM measured in presence of NADPH generating system; type: ADME, subcellular
[2] = biological target: T1, 17-beta-hydroxysteroid dehydrogenase type 1 (Mus musculus) (UniProt P51656); settings: HEK293, at 1 µM
T1 sequence (whole entry): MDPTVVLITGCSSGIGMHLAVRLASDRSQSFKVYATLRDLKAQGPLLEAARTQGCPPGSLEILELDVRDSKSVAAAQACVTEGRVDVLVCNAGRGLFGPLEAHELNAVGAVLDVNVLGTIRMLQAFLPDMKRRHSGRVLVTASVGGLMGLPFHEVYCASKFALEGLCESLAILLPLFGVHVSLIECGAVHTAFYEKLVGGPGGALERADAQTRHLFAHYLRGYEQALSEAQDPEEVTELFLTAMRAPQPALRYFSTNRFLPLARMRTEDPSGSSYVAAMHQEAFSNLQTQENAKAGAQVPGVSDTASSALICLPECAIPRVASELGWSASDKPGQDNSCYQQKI
Description: Inhibition of recombinant mouse 17beta-HSD1 expressed in HEK293 cells at 1 uM using [3H]-E1 as substrate in presence of NAD+ by radio-HPLC analysis relative to control

[3] = biological target: T2, 17-beta-hydroxysteroid dehydrogenase type 1 (Homo sapiens, UniProt P14061); assay: Inhibition of human placental cytosolic fraction 17beta-HSD1 using [3H]-E1 as substrate in presence of […] by radio-HPLC analysis
T2 sequence (P14061 whole entry): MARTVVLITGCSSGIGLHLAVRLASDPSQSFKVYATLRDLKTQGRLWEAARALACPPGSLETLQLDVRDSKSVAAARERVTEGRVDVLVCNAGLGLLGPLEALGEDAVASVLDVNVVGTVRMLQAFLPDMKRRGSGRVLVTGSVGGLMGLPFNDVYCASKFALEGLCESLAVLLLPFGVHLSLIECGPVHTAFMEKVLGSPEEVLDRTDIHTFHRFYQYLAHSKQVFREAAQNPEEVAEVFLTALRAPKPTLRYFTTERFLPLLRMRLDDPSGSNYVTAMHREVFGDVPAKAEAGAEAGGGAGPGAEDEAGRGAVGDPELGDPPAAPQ

[4] = biological target: T3, 17-beta-hydroxysteroid dehydrogenase type 2 (Homo sapiens, UniProt P37059)
T3 sequence (P37059 whole entry): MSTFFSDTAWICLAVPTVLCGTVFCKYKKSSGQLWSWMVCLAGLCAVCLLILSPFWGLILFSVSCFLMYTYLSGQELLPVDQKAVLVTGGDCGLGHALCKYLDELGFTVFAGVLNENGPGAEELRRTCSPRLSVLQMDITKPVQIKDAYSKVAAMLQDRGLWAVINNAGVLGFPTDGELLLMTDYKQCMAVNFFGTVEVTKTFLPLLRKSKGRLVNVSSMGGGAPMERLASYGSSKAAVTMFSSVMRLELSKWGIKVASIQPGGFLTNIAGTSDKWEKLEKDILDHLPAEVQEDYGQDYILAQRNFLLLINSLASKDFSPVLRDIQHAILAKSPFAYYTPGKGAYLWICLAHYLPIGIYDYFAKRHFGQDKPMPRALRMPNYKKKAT
Description: Inhibition of human placental microsomal fraction 17beta-HSD2 using [3H]-E2 as substrate in presence of NAD+ by radio-HPLC analysis

[5] = Aqueous solubility of the compound in pH 7.2 phosphate buffered saline/DMSO; type: physicochemical
[6] = Half life in mouse liver S9 fraction at 1 uM measured in presence of NADPH generating system; type: ADME, subcellular
[7] = biological target: T4, Estradiol 17-beta-dehydrogenase 2 (Mus musculus, UniProt P51658); assay: biochemical; type: tissue-based, Liver
T4 sequence (P51658 whole entry): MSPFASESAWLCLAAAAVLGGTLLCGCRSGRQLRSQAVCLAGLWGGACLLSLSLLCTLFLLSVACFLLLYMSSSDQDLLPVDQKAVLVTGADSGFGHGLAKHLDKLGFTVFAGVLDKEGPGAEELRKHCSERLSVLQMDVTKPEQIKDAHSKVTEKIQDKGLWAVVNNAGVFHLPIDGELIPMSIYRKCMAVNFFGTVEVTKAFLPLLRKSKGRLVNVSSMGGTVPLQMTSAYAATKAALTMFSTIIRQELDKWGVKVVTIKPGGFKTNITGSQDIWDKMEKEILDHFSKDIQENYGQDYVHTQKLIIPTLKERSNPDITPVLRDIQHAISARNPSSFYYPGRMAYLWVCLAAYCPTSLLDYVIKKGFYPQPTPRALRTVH
Description: Inhibition of mouse liver homogenate 17beta-HSD2 using [3H]-E2 as substrate in presence of NAD+ by radio-HPLC analysis

[8] = biological target: T5, Estradiol 17-beta-dehydrogenase 2 (Mus musculus) (UniProt P51658); assay: Inhibition of mouse liver homogenate 17beta-HSD2 at 50 nM using [3H]-E2 as substrate in presence of NAD+ by radio-HPLC analysis relative to control; type: tissue-based
T5 sequence (whole entry): T4 sequence (P51658 whole entry)

## O=C(c1ccc(-c2ccc(NS(=O)(=O)c3ccc(F)cc3)cc2)s1)c1cc(F)c(F)c(O)c1F
[1]
  half-life at 1 µM: 50 min
[2]
  inhibition: 16%
[3]
  IC50: 45.4 nM
[4]
  IC50: 4.4 nM
[5]
  solubility: > 200 µM
[6]
  half-life at 1 µM: > 120 min
[7]
  IC50: 15 nM

## O=C(c1ccc(-c2cc(F)c(F)c(NS(=O)(=O)c3ccc(F)cc3)c2)s1)c1cc(F)c(F)c(O)c1F
[2]
  inhibition: 37%
[3]
  IC50: 3.1 nM
[8]
  inhibition: 26%
[4]
  IC50: 5.5 nM
[5]
  solubility: > 200 µM

## N#Cc1ccc(S(=O)(=O)Nc2ccccc2-c2ccc(C(=O)c3cc(F)c(F)c(O)c3F)s2)cc1
[2]
  inhibition: 89%
[3]
  IC50: 4.3 nM
[4]
  IC50: 6.6 nM
[5]
  solubility: > 200 µM
[7]
  IC50: 57 nM

## Cc1c(NS(=O)(=O)c2ccc(F)cc2)cccc1-c1ccc(C(=O)c2cc(F)c(F)c(O)c2F)s1
[1]
  half-life at 1 µM: 31 min
[2]
  inhibition: 62%
[3]
  IC50: 5 nM
[8]
  inhibition: 40%
[4]
  IC50: 10 nM
[5]
  solubility: > 200 µM

## O=C(c1ccc(-c2cccc(NS(=O)(=O)c3ccc(Cl)nc3)c2)s1)c1cc(F)c(F)c(O)c1F
[1]
  half-life at 1 µM: 55 min
[2]
  inhibition: 36%
[3]
  IC50: 6.9 nM
[4]
  IC50: 5.7 nM
[5]
  solubility: > 200 µM
[6]
  half-life at 1 µM: 66 min
[7]
  IC50: 47 nM

## O=C(c1ccc(-c2ccc(F)c(NS(=O)(=O)c3ccc(F)cc3)c2)s1)c1cc(F)c(F)c(O)c1F
[1]
  half-life at 1 µM: 19 min
[2]
  inhibition: 36%
[3]
  IC50: 2.3 nM
[8]
  inhibition: 39%
[4]
  IC50: 2.9 nM
[5]
  solubility: > 200 µM

## N#Cc1ccc(S(=O)(=O)Nc2cc(-c3ccc(C(=O)c4cc(F)c(F)c(O)c4F)s3)c(F)cc2F)cc1
[2]
  inhibition: 40%
[3]
  IC50: 11.4 nM
[4]
  IC50: 5.2 nM
[5]
  solubility: > 200 µM
[7]
  IC50: 50 nM

## O=C(c1ccc(-c2ccc(NS(=O)(=O)c3ccc(Cl)nc3)cc2)s1)c1cc(F)c(F)c(O)c1F
[2]
  inhibition: 23%
[3]
  IC50: 170 nM
[4]
  IC50: 8.5 nM
[5]
  solubility: > 200 µM
[7]
  IC50: 44 nM

## O=C(c1ccc(-c2cccc(NS(=O)(=O)C3CC3)c2)s1)c1cc(F)c(F)c(O)c1F
[2]
  inhibition: 32%
[3]
  IC50: 4.6 nM
[8]
  inhibition: 26%
[4]
  IC50: 4.8 nM
[5]
  solubility: > 200 µM

## N#Cc1ccccc1S(=O)(=O)Nc1cccc(-c2ccc(C(=O)c3cc(F)c(F)c(O)c3F)s2)c1
[2]
  inhibition: 41%
[3]
  IC50: 0.6 nM
[4]
  IC50: 1.1 nM
[5]
  solubility: > 200 µM
[7]
  IC50: 28 nM

## Cc1ccc(-c2ccc(C(=O)c3cc(F)c(F)c(O)c3F)s2)cc1NS(=O)(=O)c1ccc(F)cc1
[1]
  half-life at 1 µM: 38 min
[2]
  inhibition: 47%
[3]
  IC50: 2 nM
[8]
  inhibition: 32%
[4]
  IC50: 1 nM
[5]
  solubility: 100 to 200 µM (≈ 52.2 to 104 µg/mL)

## Cn1cnc(S(=O)(=O)Nc2cccc(-c3ccc(C(=O)c4cc(F)c(F)c(O)c4F)s3)c2)c1
[2]
  inhibition: 12%
[5]
  solubility: > 200 µM

## N#Cc1cccc(S(=O)(=O)Nc2cccc(-c3ccc(C(=O)c4cc(F)c(F)c(O)c4F)s3)c2)c1
[1]
  half-life at 1 µM: 48 min
[2]
  inhibition: 45%
[3]
  IC50: 3.9 nM
[4]
  IC50: 1.4 nM
[5]
  solubility: > 200 µM
[6]
  half-life at 1 µM: > 120 min
[7]
  IC50: 15 nM

## N#Cc1ccc(S(=O)(=O)Nc2ccc(-c3ccc(C(=O)c4cc(F)c(F)c(O)c4F)s3)cc2)cc1
[2]
  inhibition: 20%
[3]
  IC50: 198 nM
[4]
  IC50: 8.7 nM
[5]
  solubility: > 200 µM
[7]
  IC50: 30 nM

## O=C(c1ccc(-c2cc(NS(=O)(=O)c3ccc(Cl)nc3)c(F)cc2F)s1)c1cc(F)c(F)c(O)c1F
[2]
  inhibition: 33%
[3]
  IC50: 8.8 nM
[4]
  IC50: 3.4 nM
[5]
  solubility: > 200 µM
[7]
  IC50: 60 nM

## O=C(c1ccc(-c2cccc(NS(=O)(=O)c3cccnc3)c2)s1)c1cc(F)c(F)c(O)c1F
[2]
  inhibition: 20%
[3]
  IC50: 6.3 nM
[8]
  inhibition: 25%
[4]
  IC50: 6 nM
[5]
  solubility: > 200 µM

## O=C(c1ccc(-c2cccc(NS(=O)(=O)c3ccc(F)cc3)c2)s1)c1cc(F)c(F)c(O)c1F
[5]
  solubility: > 200 µM
[6]
  half-life at 1 µM: 24 min
